From PubChem BioAssay (NCI)
Where “and” joins values, the source holds several entries; their conditions need not be identical. Equal entries are not always repeated.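 In this assay, cells in 96-well plates receive the compound at five concentrations for 48 hours. Endpoints are linearly interpolated between the surrounding concentrations. GI50 marks 50% less growth. TGI denotes the concentration required for complete inhibition of growth.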

Tests used:
Test in all cases: inhibition of tumour cell growth, NCI panel, 48 h
COLO 205 colon = test system: COLO 205 colon
SN12C renal = test system: SN12C renal
M14 melanoma = test system: M14 melanoma
OVCAR-5 ovarian = test system: OVCAR-5 ovarian
SF-295 CNS = test system: SF-295 CNS
DU-145 prostate = test system: DU-145 prostate
T-47D breast = test system: T-47D breast
PC-3 prostate = test system: PC-3 prostate

| Structure (SMILES) | TGI (COLO 205 colon) | TGI (SN12C renal) [µM] | TGI (M14 melanoma) | TGI (OVCAR-5 ovarian) | TGI (SF-295 CNS) | TGI (DU-145 prostate) | TGI (T-47D breast) | TGI (PC-3 prostate) | GI50 (COLO 205 colon) | GI50 (DU-145 prostate) | GI50 (T-47D breast) | GI50 (SN12C renal) | GI50 (M14 melanoma) | GI50 (OVCAR-5 ovarian) | GI50 (PC-3 prostate) | GI50 (SF-295 CNS) |
| --- | --- | --- | --- | --- | --- | --- | --- | --- | --- | --- | --- | --- | --- | --- | --- | --- |
| O=C(c1ccc([N+](=O)[O-])cc1[N+](=O)[O-])N(/N=C/C=C/c1ccccc1)c1nnc(-c2ccccc2)c(-c2ccccc2)n1 | > 100 µM | > 100 | > 100 µM | > 100 µM | > 100 µM |  |  |  |  |  |  |  |  |  |  |  |
| COc1c2occc2c(N)c2ccc(=O)oc12 | > 100 µM | > 100 | > 100 µM | > 100 µM | > 100 µM | > 100 µM | > 100 µM | > 100 µM |  |  |  |  |  |  |  |  |
| O=c1[nH]c(O)c(C=Nc2ccc(-c3nc4ccccc4o3)cc2)c(=O)[nH]1 | > 100 µM | > 100 | > 100 µM | > 100 µM | 68.9 µM | > 100 µM | > 100 µM | > 100 µM | 23.2 µM | > 100 µM | 93.7 µM | > 100 µM | 50.8 µM | > 100 µM | > 100 µM | 23.7 µM |
| COc1cc2c(cc1OCCCN1CCN(CCCOc3cc4c(cc3OC)C(=O)N3CC(F)(F)C[C@H]3C=N4)CC1)N=C[C@@H]1CC(F)(F)CN1C2=O | 10.2 µM | 19.5 | 16.5 µM | 11.4 µM |  | 13.3 µM | 36.9 µM | 9.74 µM | 3.09 µM | 3.63 µM | 3.25 µM | 4.05 µM | 3.25 µM | 3.83 µM | 3.06 µM |  |
| CSC[C@H](NC(=O)COc1cccc2cnccc12)C(=O)NC(Cc1ccccc1)C(O)C(=O)N1CSC[C@H]1C(=O)NC(C)(C)C (some centres not stated) | > 100 µM | > 100 | > 100 µM | > 100 µM | > 100 µM | > 100 µM | > 100 µM | > 100 µM |  |  |  |  |  |  |  |  |
| COC(=O)c1c2c(c(C)[n+]([O-])c1C)C(=O)C(NCc1ccc(Br)cc1)=CC2=O |  | 4.09 | 2.46 µM |  |  |  | 4.06 µM |  |  |  | 1.52 µM | 1.66 µM | 1.14 µM |  |  |  |
| Nc1c(C(=O)Nc2ccccn2)sc2nc3c(cc12)C(=O)CCC3 | 26 µM | > 100 | > 100 µM | > 100 µM | > 100 µM | > 100 µM | > 100 µM | > 100 µM | 0.908 µM | 1.98 µM | 4.89 µM | 3.36 µM | 0.483 µM | 9.53 µM | 1.43 µM | 0.473 µM |
| C=C(C)C(C1C=C(CCC(C=O)=C(C)C)C(=O)O1)C1(OC)C=C(C)C(=O)O1 (configuration not stated) | > 100 µM | > 100 | > 100 µM | > 100 µM | > 100 µM | > 100 µM | > 100 µM | > 100 µM | 63.6 µM | > 100 µM | 25.8 µM | > 100 µM | > 100 µM | > 100 µM | > 100 µM | > 100 µM |
| CCSc1nc(N=Cc2ccccc2O)c2cn[nH]c2n1 | > 100 µM | 95.1 | 33 µM | 66.9 µM | 80.2 µM | > 100 µM | > 100 µM | 72.7 µM | 30.7 µM | 72.1 µM | 33.4 µM | 26.3 µM | 17.4 µM | 21.1 µM | 28 µM | 23.9 µM |
| CNCCCNc1ccnc2cc(Cl)ccc12 | 27.4 µM | > 100 | 34.4 µM | 72 µM | > 100 µM | 38.5 µM | > 100 µM | 57 µM | 12.6 µM | 17.3 µM | 25.7 µM | 24.6 µM | 16 µM | 21.1 µM | 17.9 µM | 27.1 µM |
| CCn1cc(-c2ccnc3[nH]c(-c4cccc(CN(C)C)c4)cc23)c(-c2ccc(NC(=O)N(C)C)cc2)n1 | 3.81 µM and 2.99 µM | > 57.8 | 16.9 µM and > 10 µM | 14.6 µM and > 10 µM | 11.7 µM and > 10 µM | 37.8 µM and > 10 µM | 77.3 µM and > 10 µM | 27 µM and > 10 µM | < 0.01 µM and 0.0272 µM | 3.63 µM and 1.97 µM | 13.3 µM and > 10 µM | 1.38 µM and 0.994 µM | 1.91 µM and 2.31 µM | 1.56 µM and 4.74 µM | 1.46 µM and 3.02 µM | 0.484 µM and 0.408 µM |
| CCN(CCNS(C)(=O)=O)c1ccc(N)c(C)c1 | 28.9 µM | 23.9 | 26.4 µM | 28.2 µM | 34.3 µM | 22.8 µM |  |  | 13.4 µM | 10.8 µM |  | 11.4 µM | 10.9 µM | 13.6 µM |  | 16.7 µM |
| C=C(C)[C@@H]1CC[C@]2(CN)CC[C@]3(C)[C@H](CC[C@@H]4[C@@]5(C)CCCNC(C)(C)[C@@H]5CC[C@]43C)[C@@H]12 | 2.91 µM | 3.31 | 3.18 µM | 3.11 µM | 3.29 µM | 2.97 µM | 3.81 µM | 3.2 µM | 1.4 µM | 1.59 µM | 1.88 µM | 1.75 µM | 1.69 µM | 1.59 µM | 1.77 µM | 1.78 µM |
| O=c1cccc(C#CC#C[C@@H]2O[C@H]2CO)o1 | 0.388 µM | 0.915 |  | 1.88 µM | 9.03 µM | 5.97 µM | 3.32 µM | 4.1 µM | 0.201 µM | 2.42 µM | 1.33 µM | 0.465 µM | 0.414 µM | 0.49 µM | 1.82 µM | 2.64 µM |
| CN(C)CCN1CCC(Cc2ccccc2)CC1 | > 80 µM | > 80 | > 80 µM | > 80 µM | > 80 µM | > 80 µM | > 80 µM | > 80 µM | > 80 µM | > 80 µM | > 80 µM | > 80 µM | > 80 µM | > 80 µM | > 80 µM | > 80 µM |
| O=[N+]([O-])c1cccnc1N=Nc1c(O)[nH]c2ccccc12 |  | 86.5 | 58.1 µM | 49.2 µM | 38.7 µM | 29.6 µM |  | 63 µM |  |  |  |  |  |  |  |  |
| CCN(Cc1c(F)cccc1OC)c1ccc(CO)c(Cl)c1 | 7.43 µM | 26 | 47.8 µM | 0.242 µM | 1.88 µM | > 57.3 µM | 0.283 µM | 58.4 µM | 0.684 µM | 17.8 µM | 0.0467 µM | 12.8 µM | 19.7 µM | 0.0371 µM | 17.1 µM | 0.0707 µM |
| Cc1cc(C(=O)CSC(=S)SC(C)(C)C)ccc1Cl | 33.1 µM | 43.6 | 30.4 µM | 43.9 µM | 37.1 µM | > 100 µM |  | 95.8 µM |  |  |  |  |  |  |  |  |
| COc1ccc(-c2c(C#N)c(N3CCOCC3)nc3[nH]c(=S)[nH]c(=S)c23)cc1OC | > 100 µM | 91.3 | > 100 µM | > 100 µM | > 100 µM | > 100 µM |  | > 100 µM | 66.8 µM | 58.7 µM |  | 21.7 µM | 81.6 µM | > 100 µM | 40.3 µM | 40.1 µM |
| COc1cc(/C=C2\CCCCC3=C2N=C2SC(C)=CN2C3c2cc(OC)c(OC)c(OC)c2)cc(OC)c1OC (configuration not stated) | > 100 µM | > 100 | > 100 µM | > 100 µM | > 100 µM | > 100 µM | > 100 µM |  | 41.6 µM | > 100 µM | 0.566 µM | 61.8 µM | 23.7 µM | > 100 µM |  | 18 µM |
| C[N+](C)(C)CC(=O)N/N=C(/Cc1cc(=O)oc2cc(O)ccc12)C(=O)Nc1ccc(Cl)cc1 | > 100 µM | > 100 | > 100 µM | > 100 µM | > 100 µM |  |  |  |  |  |  |  |  |  |  |  |
| C[C@H](CCOc1cccc(CC(=O)O)c1)N(Cc1cccc(C(F)(F)F)c1Cl)CC(c1ccccc1)c1ccccc1 |  | 18.7 | 24.2 µM | 28.1 µM | 18.6 µM | 20.4 µM | 33.6 µM | 17.4 µM |  | 7.89 µM | 4.47 µM | 5.33 µM | 7.23 µM | 13.4 µM | 4.64 µM | 4.44 µM |
| COc1ccc(-c2cc(=O)oc3c4c(ccc23)OCN(Cc2ccc(F)cc2)C4)cc1 | 36.1 µM | 32.2 |  | 45.1 µM | 30 µM | 59.9 µM | 43.8 µM | 44.1 µM | 18.7 µM | 24.3 µM | 13.5 µM | 15.6 µM |  | 18.4 µM | 15.8 µM | 15 µM |
| CNc1nc(N)nc(Nc2ccc(I)cc2)c1N=O | > 100 µM | > 100 |  | > 100 µM | > 100 µM | > 100 µM |  | > 100 µM |  |  |  |  |  |  |  |  |
| CO[C@@H]1CC[C@]2(C)OC[C@H](C)[C@@H]3C[C@@H](C)[C@@H](OC(C)=O)[C@@H]4[C@H]3[C@@H]2O[C@H]4C[C@@]1(C)O | > 100 µM | > 100 |  | > 100 µM | > 100 µM | > 100 µM | > 100 µM |  | > 100 µM | > 100 µM | > 100 µM | > 100 µM |  | > 100 µM |  | > 100 µM |
| CN(Cc1cnc2nc(N)nc(N)c2n1)c1ccc(C(=O)N[C@@H](CCS(=O)(=O)O)C(=O)O)cc1 | > 100 µM | > 100 | > 100 µM |  | > 100 µM | > 100 µM | > 100 µM | > 100 µM |  | 1.31 µM |  |  |  |  |  |  |
